This is an account of results in ChEMBL document CHEMBL3994660, “Novel 5-arylthio-5H-chromenopyridines as a new class of anti-fibrotic agents” (Bioorg Med Chem Lett, 2017).

Calls of active or inactive are those of the source. No cut-off for these calls is given here.

Data set [1] concerns Hepatitis C virus. Briefly: Inhibition of HCV NS3 protein expression infected in human Huh7.5 cells at 25 uM after 6 hrs by Western blot method relative to control. In kind it is functional, Hepacivirus hominis. The settings on record: Huh7.5, 6 h. (In general: A western blot detects proteins with antibodies after separation by electrophoresis.)
The test system of data set [2] is LX2. Briefly: Antifibrotic activity against human LX2 cells assessed as inhibition of spindle shaped cells by measuring round shaped cells at 10 uM after 6 hrs by light microscopic method. In kind it is functional, cell-based.
For data set [3], the system named is Hepatitis C virus. Briefly: Inhibition of HCV NS3 protein expression infected in human Huh7.5 cells at 10 uM after 6 hrs by Western blot method relative to control. In kind it is functional, Hepacivirus hominis. The settings on record: Huh7.5, 6 h.
Data set [4] relates to Hepatitis C virus. Briefly: Inhibition of HCV NS3 protein expression infected in human Huh7.5 cells at 5 uM after 6 hrs by Western blot method relative to control. The settings on record: Huh7.5, 6 h. In kind it is functional, Hepacivirus hominis.
Data set [5] is described as follows: Cytotoxicity against human LX2 cells assessed as reduction in cell viability at 5 to 25 uM after 6 hrs by CellTiter-Glo luminescent assay. The settings on record: lx2, 6 h. In kind it is cell-based. (ATP-based viability assays read luminescence as a measure of living cells.)
Data set [6] is described as follows: Cytotoxicity against human Huh7.5 cells infected with HCV assessed as reduction in cell viability at 5 to 25 uM after 6 hrs by CellTiter-Glo luminescent assay. In kind it is cell-based. The settings on record: huh7.5, 6 h.
Data set [7] has as its system Hepatitis C virus. Briefly: Inhibition of HCV NS5A protein expression infected in human Huh7.5 cells at 5 to 25 uM after 6 hrs by Western blot method. In kind it is functional, cell-based. The settings on record: Hepacivirus hominis.
Data set [8] relates to LX2. Briefly: Antifibrotic activity against human LX2 cells assessed as inhibition of spindle shaped cells by measuring round shaped cells at 25 uM after 6 hrs by light microscopic method. It counts as functional, cell-based.

Usually inhibition stands for the share of the control response that was lost under treatment. With `CCN(CC)c1ccc2c(c1)Oc1nc(N)c(C#N)c(N)c1C2Sc1ccc(Br)cc1` (stereo unspecified), the inhibition at 25 µM in data set [1] amounted to 32%. In data set [2], the inhibition entry is “Active”. The inhibition at 10 µM in data set [3] was determined as 49%. Moreover, in data set [4], at 5 µM the inhibition was 59%. In addition, the Activity entry in data set [5] and in data set [6] was “Non-Toxic” throughout. Moreover, in data set [7], the inhibition entry is “inactive”.

On to `CCN(CC)c1ccc2c(c1)Oc1nc(N)c(C#N)c(N)c1C2Sc1ccc(OC)cc1` (stereo unspecified), for which the inhibition at 25 µM in data set [1] turned out to be 28%. The same molecule registered an inhibition at 10 µM in data set [3] of 27%. Besides, the inhibition at 5 µM in data set [4] was found to be 47%. For the same molecule, the Activity entry in data set [5] was “Toxic”; in data set [6], “Non-Toxic”. Besides, in data set [7], the inhibition result is “inactive”.

For `CCN(CC)c1ccc2c(c1)Oc1nc(N)c(C#N)c(N)c1C2Sc1ccc(SC)cc1` (stereo unspecified), in data set [1], the inhibition at 25 µM is 45%. The molecule further showed an inhibition at 10 µM in data set [3] of 35%. The molecule also showed an inhibition at 5 µM in data set [4] of 29%. Also, in data set [8], the inhibition entry is “Active”. Also, in data set [6], the Activity result was “Non-Toxic”. In data set [7], the inhibition entry is “inactive”.

In turn, `CCN(CC)c1ccc2c(c1)Oc1nc(N)c(C#N)c(N)c1C2Sc1ccc(Cl)cc1` (stereo unspecified) gave an inhibition at 25 µM in data set [1] of 47%. In addition, in data set [3], at 10 µM the inhibition was 34%. The molecule further showed an inhibition at 5 µM in data set [4] of 42%. Further, the Activity entry in data set [5] is listed as “Toxic”; in data set [6], “Non-Toxic”. Also, the inhibition entry in data set [7] is “inactive”.

`CCc1ccc(SC2c3ccc(N(CC)CC)cc3Oc3nc(N)c(C#N)c(N)c32)cc1` (stereo unspecified) had an inhibition at 25 µM in data set [1] of 19%. This molecule yielded an inhibition at 10 µM in data set [3] of 0%. Besides, at 5 µM the inhibition in data set [4] was 47%. Besides, the inhibition result in data set [8] is “Active”. In addition, the Activity entry in data set [5] and in data set [6] was “Non-Toxic” each time. The inhibition entry in data set [7] was “inactive”.

As for `CCN(CC)c1ccc2c(c1)Oc1nc(N)c(C#N)c(N)c1C2Sc1ccc(C)cc1` (stereo unspecified), the Activity entry in data set [6] was “Non-Toxic”. The inhibition result in data set [7] was “inactive”.

As to `CCN(CC)c1ccc2c(c1)Oc1nc(N)c(C#N)c(N)c1C2Sc1ccc(F)cc1` (stereo unspecified), 25 µM produced 0% inhibition in data set [1]. For the same molecule, the inhibition entry in data set [2] is “Active”. Besides, at 10 µM the inhibition in data set [3] was 3%. Further, the inhibition at 5 µM in data set [4] stood at 33%. Further, the Activity result in data set [5] and in data set [6] was “Non-Toxic” each time. The inhibition entry in data set [7] was “inactive”.
